Literature values, collected in patent US20250041478A1, “FIBROUS POLYPEPTIDE-BASED BIOSCAFFOLD DELIVERY OF THERAPEUTICS TO NEURAL CELLS” (priority 2023, published 2025).
Structures can show the parent of a compound that is named as a salt.

Conditions: in vivo

- plasma half-life: 11 to 23 h
SMILES: CN(C)c1ccc(O)c2c1C[C@H]1C[C@H]3[C@H](N(C)C)C(O)=C(C(N)=O)C(=O)[C@@]3(O)C(O)=C1C2=O [MH, minocycline hydrochloride]
